Results from patent US6387950B2, “Treatment of tumors with RARα selective retinoid compounds in combination with other anti-tumor agents” (Allergan Sales, Inc., priority 2000, dated 2002).

What was measured:
RARβ receptors = biological target: T1, RARβ receptors (Homo sapiens, UniProt P10826); assay: chimeric receptor transactivation assay, RARβ; type: cell-based; conditions: agonist activity
T1 sequence (P10826 183-417 limits assumed): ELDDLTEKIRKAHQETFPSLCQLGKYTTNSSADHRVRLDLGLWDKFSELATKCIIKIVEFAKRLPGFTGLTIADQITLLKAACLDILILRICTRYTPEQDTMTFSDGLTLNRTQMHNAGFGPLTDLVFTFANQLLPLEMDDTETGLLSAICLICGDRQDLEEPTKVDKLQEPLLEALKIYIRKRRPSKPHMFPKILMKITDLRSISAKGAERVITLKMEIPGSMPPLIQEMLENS
Description: (§1) For example, a chimeric receptor transactivation assay which tests for agonist-like activity in the RARα, RARβ, RARγ, RXRα receptor subtypes, and which is based on work published by Feigner P. L. and Holm M. (1989) Focus, 112 is described in detail in U.S. Pat. No. 5,455,265. The specification of U.S. Pat. No. 5,455,265 is hereby expressly incorporated by reference.
(§2) The results obtained in this assay are expressed in EC50 numbers, as they are also in the chimeric receptor transactivation assay.

RARγ receptors = biological target: T2, RARγ receptors (Homo sapiens, UniProt P13631); assay: chimeric receptor transactivation assay, RARγ; type: cell-based; conditions: agonist activity
T2 sequence (P13631 185-419 limits assumed): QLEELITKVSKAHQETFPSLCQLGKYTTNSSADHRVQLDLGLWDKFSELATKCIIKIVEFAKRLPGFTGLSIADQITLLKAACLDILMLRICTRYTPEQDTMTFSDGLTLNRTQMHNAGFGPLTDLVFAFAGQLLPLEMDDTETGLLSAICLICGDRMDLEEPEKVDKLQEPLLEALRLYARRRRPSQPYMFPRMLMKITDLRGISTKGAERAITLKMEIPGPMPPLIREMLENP
Description: as §1, §2

SKBR-3 cells = assay: cell proliferation assay (BrdU incorporation), SKBR-3; type: cell-based, human
Experimental: (§3) The SKBR-3 and T47-D cell cultures in which the assay procedures were performed are also well known and are available from sources well known in the art. Specifically, as is known, T-47D is an estrogen receptor positive (ER^+) human breast cancer cell line, and SK-BR-3 is an estrogen receptor negative (ER^−) human breast cancer cell line. The assay procedure which itself is well known in the art, involves determining incorporation of 5-bromo-2′-deoxyuridine (BrdU) into the cells. As is known, incorporation of less BrdU represents less cell proliferation (inhibition of cell proliferation), and this assay is accepted in the art as a measure of anti-proliferative or anti-tumor activity of the assayed agent or agents.
(§4) The estrogen receptor-positive (ER^+) cell line T-47D and the ER^−-cell line SK-BR-3 were cultured in Dulbecco's modification of Eagle's medium (DMEM Gibco BRL, Gaithersburg, Md.) supplemented with 10% fetal bovine serum (HyClone, Logan, Utah), 2 mM L-glutamine and 1% antibiotics-antimycotics (Gibco BRL). Cell lines were obtained from the American Type Culture Collection (ATCC, Rockville, Md., HTB-133 and HTB-30 for T47-D and SKBR-3, respectively). Cells were cultured at 37° C. in a humidified atmosphere containing 5% CO2.
(§5) Proliferation of cancer cell lines was determined using a commercial cell proliferation kit (Roche Diagnostics), essentially following the instructions of the manufacturer. Cells were seeded into 96-well tissue culture plates (Corning Incorporated, Corning, N.Y.) at a concentration of 3000 cells/well. After 24 hours, cells were treated with Compound 2 (AGN195183) and/or interferons (IFNs) or solvent alone. The appropriate concentrations of Compound 2 (AGN195183) used in this study were between 10^−11M and 10^−6M; IFNs concentrations were between 25 and 1000 Unit/ml. Culture media were changed every 72 hours. After 7days, 10 μl of 5-bromo-2′-deoxyuridine (BrdU) was added to each well. Incubation with BrdU was stopped 24 hours later by adding 100 μl of anti-BrdU antibody to each well. The amount of BrdU incorporated into the DNA of proliferating cells was assessed by measuring absorbance at 450 nm. Each experiment was performed in triplicate.
(§6) The growth inhibition observed in the cell cultures as a result of treatment with a combination of Compound 2 (AGN195183) of the invention and the interferons (IFNs) was analyzed for synergistic and additive effects.
(§7) Synergism was defined as: %A×% B>%AB
(§8) Additivity was defined as: %A×%B=%AB
(§9) where A and B are the effects of each individual agent and AB is the effect of the combination, in accordance with the teaching of Aapro et al., Cancer Chemother. Pharmacol., 10: 161 -166, 1983, and Marth et al., J. Natl. Cancer Inst., 77:1197-1202, 1986), both of which are expressly incorporated herein by reference.
(§10) Referring now to the graphs of FIGS. 1 through 12, each of these represents the results obtained in the above described assays where SKBR-3 and T47-D cells, respectively, were treated with a combination of Compound 2 of the invention and human recombinant interferon (IFN) α, β, and γ, respectively. The graph of FIG. 13 illustrates the results of treatment of these two cell cultures only with Compound 2 of the invention, without the use of any other anti-tumor agent. In each of these graphs the incorporation of 5-bromo-2′-deoxyuridine (BrdU) is plotted on the Y (vertical) axis and varying concentration of Compound 2 of the invention or varying concentration of IFNα. IFNβ or of IFNγ, respectively is plotted on the X (horizontal) axis. The concentration of the interferons is expressed in international units, as is accepted in the art, whereas the molar concentration of Compound 2 is plotted on a logarithmic scale. […]

T47-D cells = assay: cell proliferation assay (BrdU incorporation), T47-D; type: cell-based, human
Experimental: as §3, §4, §5, §6, §7, §8, §9, §10

- EC50 (RARβ receptors): > 10 µM
- EC50 (RARγ receptors): > 10 µM
SMILES: CC1(C)CCC(C)(C)c2c1cc(C(=O)Nc1cc(F)c(C(=O)O)c(F)c1)c(O)c2Cl [Compound 2, 2,6-Difluoro-4-[(3-hydroxy-4-chloro-5,5,8 8-tetramethyl-5,6,7,8-tetrahydronaphthalene-2-carbonyl) -amino]-benzoic acid]
- anti-proliferative effect of the combination (BrdU incorporation) (SKBR-3 cells; Compound 2 10 nM, IFNα varied, FIG. 1): synergistic effect
- anti-proliferative effect of the combination (BrdU incorporation) (SKBR-3 cells; Compound 2 10 nM, IFNα varied, FIG. 1, listed as AGN 195183): synergism
- anti-proliferative effect of the combination (BrdU incorporation) (SKBR-3 cells; Compound 2 10 nM, IFNβ varied, FIG. 2): significant synergistic effect
- anti-proliferative effect of the combination (BrdU incorporation) (SKBR-3 cells; Compound 2 10 nM, IFNβ varied, FIG. 2, listed as AGN 195183): synergism
- anti-proliferative effect of the combination (BrdU incorporation) (SKBR-3 cells; Compound 2 10 nM, IFNγ varied, FIG. 3): significant synergistic effect
- anti-proliferative effect of the combination (BrdU incorporation) (SKBR-3 cells; Compound 2 10 nM, IFNγ varied, FIG. 3, listed as AGN 195183): synergism
- anti-proliferative effect of the combination (BrdU incorporation) (SKBR-3 cells; IFNα 100 U/ml, Compound 2 varied, FIG. 4): significant synergistic effect
- anti-proliferative effect of the combination (BrdU incorporation) (SKBR-3 cells; IFNα 100 U/ml, Compound 2 varied, FIG. 4, listed as AGN 195183): synergism
- anti-proliferative effect of the combination (BrdU incorporation) (SKBR-3 cells; IFNβ 100 U/ml, Compound 2 varied, FIG. 5): significant synergistic effect
- anti-proliferative effect of the combination (BrdU incorporation) (SKBR-3 cells; IFNβ 100 U/ml, Compound 2 varied, FIG. 5, listed as AGN 195183): synergism
- anti-proliferative effect of the combination (BrdU incorporation) (SKBR-3 cells; IFNγ 100 U/ml, Compound 2 varied, FIG. 6): significant synergistic effect
- anti-proliferative effect of the combination (BrdU incorporation) (SKBR-3 cells; IFNγ 100 U/ml, Compound 2 varied, FIG. 6, listed as AGN 195183): synergism
- anti-proliferative effect of the combination (BrdU incorporation) (T47-D cells; Compound 2 100 nM, IFNα varied, FIG. 7): additive
- anti-proliferative effect of the combination (BrdU incorporation) (T47-D cells; Compound 2 100 nM, IFNβ varied, FIG. 8): significantly synergistic
- anti-proliferative effect of the combination (BrdU incorporation) (T47-D cells; Compound 2 100 nM, IFNβ varied, FIG. 8, listed as AGN 195183): synergism
- anti-proliferative effect of the combination (BrdU incorporation) (T47-D cells; Compound 2 100 nM, IFNγ varied, FIG. 9): significantly synergistic
- anti-proliferative effect of the combination (BrdU incorporation) (T47-D cells; Compound 2 100 nM, IFNγ varied, FIG. 9, listed as AGN 195183): synergism
- anti-proliferative effect of the combination (BrdU incorporation) (T47-D cells; IFNα 100 U/ml, Compound 2 varied, FIG. 10): not very effective and merely additive
- anti-proliferative effect of the combination (BrdU incorporation) (T47-D cells; IFNβ 100 U/ml, Compound 2 varied, FIG. 11): synergistic inhibition
- anti-proliferative effect of the combination (BrdU incorporation) (T47-D cells; IFNβ 100 U/ml, Compound 2 varied, FIG. 11, listed as AGN 195183): synergism
- anti-proliferative effect of the combination (BrdU incorporation) (T47-D cells; IFNγ 100 U/ml, Compound 2 varied, FIG. 12): synergistic inhibition was observed, in the cotreatment with IFNγ only at higher concentrations of Compound 2
- anti-proliferative effect of the combination (BrdU incorporation) (T47-D cells; IFNγ 100 U/ml, Compound 2 varied, FIG. 12, listed as AGN 195183): synergism
